Measured values taken from patent US7964598B2 (The J. David Gladstone Institutes, priority 1995, dated 2011).
Several values for one entry are separate records, joined by “and”; a condition that tells them apart may be missing. Equal values may be shown once.

Columns and labels:
B103-APP cells = test: APP processing and Aβ production, B103-APP cells; assay type: cell-based, rat; conditions: lipid-free apoE, 7.5 μg/ml, 24 h, compared to medium alone
Experimental: Aβ production assay. Stable neuroblastoma B103 cell lines transfected with a wildtype hAPP cDNA construct (B 103-APP) were selected by growing them in Dulbecco's modified Eagle's medium (DMEM) containing 10% fetal calf serum (FBS) and 400 μg/ml G418. A cell line expressing APP at similar levels in mouse brains has been identified by RNase protection assay (RPA) and was used in the studies described below. To determine Aβ production, B103-APP cells were incubated with serum-free minimal essential medium (MEM) containing N2 supplements with or without apoE isoforms for 24 h at 37° C. After incubation, 50 μl of medium was collected and assayed for Aβ levels with an ELISA method. The cells were lysed, and cellular proteins were determined by the Lowry method. AP production was normalized to cellular protein.
Cell Culture. Rat neuroblastoma B103 cells stably expressing human wildtype APP (hAPP695wt) (Xu et al. ((1999) Proc. Natl. Acad. Sci. USA 96:7547-7552; Esposito, et al. (2004) J. Neurochem. 91:1260-1274) were generated in Dr. Lennart Mucke's laboratory at the Gladstone Institute of Neurological Disease and maintained in Dulbecco's modified Eagle's medium (DMEM) (GIBCO, Grand Island, N.Y.) containing 400 μg/ml G418, 10% fetal bovine serum, and 5% horse serum at 37° C. Twenty-four hours after plating into 48-well plates (1×10^5 cells per well), cells were washed twice with serum-free DMEM and cultured for another 24 h in DMEM containing 1% N-2 supplement (GIBCO) to induce differentiation. The cells were treated with either β-VLDL (25 μg/ml cholesterol), recombinant human apoE isoform-enriched β-VLDL (7.5 μg/ml apoE and 25 μg/ml cholesterol), or recombinant human apoE (7.5 μg/ml apoE) in fresh DMEM containing 1% N-2 supplement for an additional 24 h. In some experiments, RAP (25 nM or 1 μM) was added to the cells 1 h before apoE treatment.
In some experiments, cells were treated with lovastatin, as described but with a minor modification. Fassbender et al. (2001) Proc. Natl. Acad. Sci. USA 98:5856-5861. Briefly, cells were maintained in differentiation medium containing 4 μM lovastatin and 0.25 mM mevalonate for 24 h. After treatment for 5 min with 5 mM methyl-β-cyclodextrin, which depletes cell membrane cholesterol (Bodovitz and Klein (1996) J. Biol. Chem. 271:4436-4440; Kojro et al. (2001) Proc. Natl. Acad. Sci. USA 98:5815-5820), the cells were incubated in fresh differentiation medium containing lovastatin and mevalonate for 24 h. The conditioned medium was collected, and cellular cholesterol extracted with chloroform/methanol (Huang et al. (1994) Proc. Natl. Acad. Sci. USA 91:1834-1838) and quantitated with a kit from Abbott Laboratories (Abbott Park, Ill.).
Detection of sAPPα. Media conditioned for 24 hours were normalized by protein content and subjected to SDS/PAGE. Proteins were then transferred onto nitrocellulose membranes. The sAPPα was detected by mAb 6E10 and visualized with an enhanced chemiluminescence system (Pierce, Rockford, Ill.).
Aβ Assay. Aβ secreted into the medium was detected with a sandwich enzyme-linked immunosorbent assay (ELISA), using mAb 266 as a capturing antibody and 3D6 as a detecting antibody, as described. Johnson-Wood et al. ((1997) Proc. Natl. Acad. Sci. USA 94:1550-1555). Aβ was quantified from a standard curve (Aβ42; Bachem, Torrance, Calif.) and normalized by total cellular protein.

wild-type CHO cells = test: Pulse chase of 125I-apoE+β-VLDL, wild-type CHO cells; assay type: cell-based, Chinese hamster; conditions: for Total: recovery in the fractions; for bound to the cells at 4° C. (zero time): wild-type CHO cells
Experimental: (§1) Cultured cells were grown to ˜100% confluence, placed on ice, and washed twice with cold DMEM-Hepes. The cells were then incubated with ^125I-apoE+β-VLDL at 4° C. for 1 h to allow for cell-surface binding (zero time bound ligand). Cells were rinsed three times with cold F12 medium to remove unbound ligands. Prewarmed F12 medium was added; and the cells were incubated at 37° C. for the times indicated. At each point, the cells were again placed on ice, and the culture medium was collected. To 0.5 ml of medium was added 0.4 ml of 0.2% bovine serum albumin (Sigma) and 0.4 ml of 50% trichloroacetic acid (TCA). The medium was then incubated at 4° C. for 30 min and centrifuged at 3,000 rpm for 10 min. The supernatant was collected for ^125I-apoE degradation assay, and the pellet was counted as TCA-precipitable intact ^125I-apoE. The cells were washed once with cold DMEM-Hepes, incubated with 10 mM suramin on ice in a cold room for 30 min, and then dissolved in 0.1 N NaOH. Cellular radioactivity (internalized apoE) was measured with a gamma counter, and protein concentration was determined by Lowry's method.
To evaluate these possibilities, we conducted a modified A pulse-chase@ study in which CHO cells were incubated with ^125I-apoE-enriched β-VLDL for 1 h at 4° C., washed to remove unbound lipoproteins, and then warmed to 37° C. for various times to follow internalization, degradation, and retention (see Materials and Methods). At the specific times, the medium was removed for analysis of both degradation products (degraded apoE) and TCA-precipitable proteins (released intact apoE), and the cells were washed with suramin (suramin-releasable apoE) and then counted (internalized apoE).

HSPG-deficient CHO cells = test: Pulse chase of 125I-apoE+β-VLDL, HSPG-deficient CHO cells; assay type: cell-based, Chinese hamster
Experimental: as §1

HepG2 cells = test: Cell association of 125I-apoE-enriched β-VLDL by HepG2 cells; assay type: cell-based, human
B103-neo cells = test: Cell association and degradation of 125I-Aβ40 by B103-neo cells; assay type: cell-based, rat; conditions: 125I-Aβ1-40 350 pg/ml with apoE, 24-h incubation
Experimental: Cell Association and Degradation of ^125I-Aβ40 by Neo-transfected B103 Cells. […] Culture medium was collected after 24 h, and the degradation products of ^125I-Aβ40 in the medium were assayed as described. Goldstein et al al. ((1983) Methods Enzymol. 98:241-250). The cells were washed five times on ice with phosphate-buffered saline (PBS) containing 0.2% bovine serum albumin and once with PBS and lysed by 0.1 N NaOH. The cell-associated ^125I-Aβ40 was determined by counting the radioactivity in the cell lysate.
The cell association and degradation of Aβ were measured after a 24-h incubation, as described in Methods, above.

Substance	increase of Aβ production (B103-APP cells)	Total (wild-type CHO cells; 30 min) [ng/mg cell protein]	Degraded (wild-type CHO cells; 30 min at 37° C.) [ng/mg cell protein]	Internalized (retained) (wild-type CHO cells; 30 min at 37° C.) [ng/mg cell protein]	Suramin-releasable (cell surface) (wild-type CHO cells; 30 min at 37° C.) [ng/mg cell protein]	TCA-precipitable (released intact) (wild-type CHO cells; 30 min at 37° C.) [ng/mg cell protein]	Total (wild-type CHO cells; 60 min) [ng/mg cell protein]	Degraded (wild-type CHO cells; 60 min at 37° C.) [ng/mg cell protein]	Internalized (retained) (wild-type CHO cells; 60 min at 37° C.) [ng/mg cell protein]	Suramin-releasable (cell surface) (wild-type CHO cells; 60 min at 37° C.) [ng/mg cell protein]	TCA-precipitable (released intact) (wild-type CHO cells; 60 min at 37° C.) [ng/mg cell protein]	Total (wild-type CHO cells; 120 min) [ng/mg cell protein]	Degraded (wild-type CHO cells; 120 min at 37° C.) [ng/mg cell protein]	Internalized (retained) (wild-type CHO cells; 120 min at 37° C.) [ng/mg cell protein]	Suramin-releasable (cell surface) (wild-type CHO cells; 120 min at 37° C.) [ng/mg cell protein]	TCA-precipitable (released intact) (wild-type CHO cells; 120 min at 37° C.) [ng/mg cell protein]	bound to the cells at 4° C. (zero time) (wild-type CHO cells)	bound to the cells (HSPG-deficient CHO cells)	cell association (HepG2 cells; 4 hours) [ng/mg cell protein]	cell association (HepG2 cells; 8 hours) [ng/mg cell protein]	also measured
apoE3: human apolipoprotein E3 isoform, also iodinated	30%	399	15	157	45	182	377	34	123	39	181	367	45	78	12	232	399 ng/mg of cell protein	77 ng/mg of cell protein	1062 ± 171	1466 ± 38	Cell association of 125I-Aβ1-40 (B103-neo cells): 10.8 ± 2.5 fmol/mg cell protein; Degradation of 125I-Aβ1-40 (B103-neo cells): 88.0 ± 6.7 fmol/mg cell protein
apoE4: human apolipoprotein E4 isoform, also iodinated	~70% and ~60%	368	12	84	27	245	338	35	55	10	238	305	43	27	10	225	378 ng/mg of cell protein	75 ng/mg of cell protein	51 ± 10	683 ± 6	Cell association of 125I-Aβ1-40 (B103-neo cells): 14.7 ± 2.5 fmol/mg cell protein; Degradation of 125I-Aβ1-40 (B103-neo cells): 80.8 ± 22.9 fmol/mg cell protein
